Test results from US20190364890A1, “SYNERGISTIC COMBINATION OF ORTHO-PHENYLPHENOL AND BIS-(3-AMINOPROPYL)DODECYLAMINE” (Dow Global Technologies LLC, priority 2016, published 2019).

How the values were obtained:
Test in all cases: Minimum Inhibitory Concentration (MIC) test / synergy testing
Type in all cases: cell-based
[1] = tested on: Candida albicans DSM# 1386; details: single biocide, TSB medium pH 5, 30° C., 72 hours
Experimental: (§1) The synergism of the biocides combination of the present invention was determined using the Minimum Inhibitory (MIC) test method described by Kull, F. C., et. al in Applied Microbiology 9:538-541 (1961).
The Minimum Inhibitory Concentration Test (MIC) is designed to evaluate the lowest concentration of a biocide, biocide blend or biocide combination to prevent bacteria growing in a defined broth. […]
The synergy testing was carried out as follows: • 1. The test was executed with a Hamilton MLStarPlus robot using automated turbidity reading with BioTek Synergy H4 plate reader. • 2. […]
• The cultures were maintained as glycerol stocks at −80° C. in cryovials, are thawed and then 100 μl spread on MEA (malt extract agar) petri dishes. • The yeast strain plates were incubated at 28° C. for 1-2 days then harvested with buffer pH 5.0. • Based on total viable count results, the inoculum was prepared. • 7. […] Reading of the results was carried out by measuring absorbance at 600 nm for each sample at the beginning of the test (tzero) and after incubation (tendpoint). tendpoint was chosen at 48 hours for bacteria and 72 hours for yeast. The difference in absorbance between tendpoint and tzero was used to assign a score (“1” if Δ>0.2, confirming growth, and “0” if Δ≤0.2, confirming no growth) from which the MIC values were derived.

[2] = tested on: Pseudomonas putida; details: single biocide, TSB medium pH 5, 30° C., 48 hours
Experimental: as §1
(§2) The Minimum Inhibitory Concentration Test (MIC) is designed to evaluate the lowest concentration of a biocide, biocide blend or biocide combination to prevent bacteria growing in a defined broth.
(§3) The MICs of the single biocides NaOPP and BDA as well as of combinations of these two actives (all in TSB) in 3 different ratios (1:1; 10:1, 100:1) were estimated against each of the 4 microorganisms Staphylococcus aureus (DSMZ#799), Pseudomonas aeruginosa (DSMZ#939) and Candida albicans (DSMZ#1386), Pseudomonas putida, respectively.
(§4) The synergy testing was carried out as follows: • 1. The test was executed with a Hamilton MLStarPlus robot using automated turbidity reading with BioTek Synergy H4 plate reader. • 2. Biocide systems were prepared in 2.2 ml deep well plates by transferring and diluting biocides from stock solutions to first rows of the plates. The concentrations of biocides in stock bottles were adjusted to be 20× more concentrated than the highest desired concentration. • 3. Then 15 subsequent serial dilutions with dilution factor 1.3 were performed resulting in 16 different concentrations for each system. • 4. In the next step serially diluted biocide systems were transferred to the media blocks containing 850 μl of TSB medium adjusted to pH 5. For each biocide system 100 μl was transferred to the media, resulting in 950 μl of final volume of media+biocides and 9.5 times dilution of the biocides from the biocide plate. At this point, the concentrations of all biocides in media were 1.053×final concentration. • 5. After preparation and mixing of the described systems, 4 aliquots of 190 μl were prepared in 96-well microtiter plates. • 6. Preparation of the microbe suspension:
(§5) • The culture was maintained as a glycerol stock at −80° C. in cryovials. A cryovial was thawed and then 100 μl spread on a TSA agar plate. After incubation for 1 day at 30° C. the bacteria were harvested with buffer at pH 7.3. A total viable count on TSA plate was carried out and bacterial suspension was diluted in buffer in order to deliver ˜2×10^7 CFU/ml.
(§6) • The cultures were maintained as glycerol stocks at −80° C. in cryovials, are thawed and then 100 μl spread on MEA (malt extract agar) petri dishes. • The yeast strain plates were incubated at 28° C. for 1-2 days then harvested with buffer pH 5.0. • Based on total viable count results, the inoculum was prepared. • 7. Each test sample (190 μl) was inoculated with the 10 μl of microbe suspension to provide a level of ˜1×10^6 CFU/ml of the bacteria species and ˜1×10^5 CFU/ml of the yeast species. • 8. The test samples were mixed and incubated at 30° C. for 2 days (48 hours) when tested against bacteria and 3 days (72 hours), respectively, when tested against yeast. • 9. Growth of the micro-organisms leads to turbidity after incubation, clarity indicates no growth. Reading of the results was carried out by measuring absorbance at 600 nm for each sample at the beginning of the test (tzero) and after incubation (tendpoint). tendpoint was chosen at 48 hours for bacteria and 72 hours for yeast. The difference in absorbance between tendpoint and tzero was used to assign a score (“1” if Δ>0.2, confirming growth, and “0” if Δ≤0.2, confirming no growth) from which the MIC values were derived.

[3] = tested on: Pseudomonas aeruginosa DSM# 939; details: single biocide, TSB medium pH 5, 30° C., 48 hours
Experimental: as §1, §2, §3, §4, §5, §6

[4] = tested on: Staphylococcus aureus DSM# 799; details: single biocide, TSB medium pH 5, 30° C., 48 hours
Experimental: as §1, §2, §3, §4, §5, §6

## CCCCCCCCCCCCN(CCCN)CCCN [BDA, bis-(3-aminopropyl)dodecylamine]
[1]; Candida albicans, DSM1386, read-out: MIC results for single biocides
  MIC: ≥ 260 µg/mL
[2]; Pseudomonas putida, read-out: MIC results for single biocides
  MIC: 200 µg/mL
[3]; Pseudomonas aeruginosa, DSM939, read-out: MIC results for single biocides
  MIC: 200 µg/mL
[4]; Staphylococcus aureus, DSM799, read-out: MIC results for single biocides
  MIC: 91 µg/mL

## [Na+].[O-]c1ccccc1-c1ccccc1 [NAOPP, sodium ortho-phenylphenate]
[1]
  MIC results for single biocides: 167 ppm
[2]
  MIC results for single biocides: 283 ppm
[3]
  MIC results for single biocides: 167 ppm
[4]
  MIC results for single biocides: 129 ppm
